Drawing on patent US20120165304A1, “6,7,8,9-Tetrahydro-5H-1,4,7,10a-tetraaza-cyclohept[f]indene derivatives, pharmaceutical compositions containing these compounds, their use and processes for preparing them” (BOEHRINGER INGELHEIM INTERNATIONAL GMBH, priority 2008, published 2012), this text covers EC50 for 52 compounds.

Chain of human 5-HT2C receptor (P28335 33-458 I156V/N158S/I160V limits assumed): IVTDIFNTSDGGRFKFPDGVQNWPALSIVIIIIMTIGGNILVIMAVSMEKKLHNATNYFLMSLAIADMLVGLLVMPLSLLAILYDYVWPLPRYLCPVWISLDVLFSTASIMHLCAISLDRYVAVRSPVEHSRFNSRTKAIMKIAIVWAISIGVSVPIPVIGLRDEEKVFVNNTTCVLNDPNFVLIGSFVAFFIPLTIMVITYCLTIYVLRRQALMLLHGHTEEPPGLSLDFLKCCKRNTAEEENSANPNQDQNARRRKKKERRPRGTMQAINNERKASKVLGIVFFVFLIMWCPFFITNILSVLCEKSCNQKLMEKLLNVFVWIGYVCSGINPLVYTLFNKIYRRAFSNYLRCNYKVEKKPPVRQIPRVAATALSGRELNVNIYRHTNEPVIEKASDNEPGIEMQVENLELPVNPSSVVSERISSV

This assay addresses human 5-HT2C receptor (Homo sapiens, UniProt P28335, I156V/I160V/N158S). Put plainly: cell-based.
For `CCc1cnn2c(N3CC(C(=O)N(C)C)C3)c3c(nc12)CCNCC3` [Example 26, 1-(3-Ethyl-6,7,8,9-tetrahydro-5H-1,4,7,10a-tetraaza-cyclohepta[f]inden-10-yl)-azetidine-3-carboxylic acid dimethylamide], the 50% effective concentration (EC50) amounted to 10 nM. In the case of `CC(C)CCNC(=O)C1CN(c2c3c(nc4ccnn24)CCN(C)CC3)C1` [Example 36.56], a half-maximal effect (EC50) was put at 217 nM. As for `CN1CCc2nc3ccnn3c(N3CC(C(=O)NC4CCCC(C(F)(F)F)C4)C3)c2CC1` (stereo not shown) [Example 36.45], the EC50 was determined as 87 nM. `O=C(C1CN(c2c3c(nc4ccnn24)CCNCC3)C1)N1CCC(Nc2ccccc2)CC1` [Example 37.43] registered an EC50 of 6 nM. The result for `CC1CCCC(NC(=O)C2CN(c3c4c(nc5ccnn35)CCNCC4)C2)C1` (stereo not shown) [Example 37.70] reads 69 nM. The result for `COc1cc(Br)ccc1OC1CN(c2c3c(nc4ccnn24)CCNCC3)C1` [Example 35.17] reads 88 nM; that for `CC(C)N1CCN(C(=O)C2CN(c3c4c(nc5ccnn35)CCN(C)CC4)C2)CC1` [Example 36.6], 67 nM; that for `CC1CCCN1C(=O)C1CN(c2c3c(nc4ccnn24)CCNCC3)C1` (stereo not shown) [Example 31.73], 252 nM.

In the case of `O=C(C1CN(c2c3c(nc4ccnn24)CCNCC3)C1)N1CCN(Cc2ccc(F)cc2)CC1` [Example 37.23], the midpoint of the response, the EC50, lay at 6 nM. For `NC1CCN(C(=O)C2CN(c3c4c(nc5ccnn35)CCNCC4)C2)CC1` [Example 37.42], the concentration giving a half-maximal response (EC50) stood at 2 nM.

Compound `O=C(NC1CCOC1)C1CN(c2c3c(nc4ccnn24)CCNCC3)C1` (stereo not shown) [Example 37.67] returned an EC50 of 67 nM. Turning to `Cc1cc(OC2CN(c3c4c(nc5ccnn35)CCNCC4)C2)cc(C)n1` [Example 35.23], the EC50 came to 105 nM. In turn, `C#CCN1CCN(C(=O)C2CN(c3c4c(nc5ccnn35)CCNCC4)C2)CC1` [Example 37.39] had an EC50 of 7 nM.

The compound `CC(=O)N(C)c1ccc(OC2CN(c3c4c(nc5ccnn35)CCNCC4)C2)cc1` [Example 35.28] displayed a 50% effective concentration (EC50) of 189 nM. In turn, `COc1ccc2cc(OC3CN(c4c5c(nc6ccnn46)CCNCC5)C3)ccc2c1` [Example 35.13] displayed an EC50 of 1360 nM. `CCN1CCCN(C(=O)C2CN(c3c4c(nc5ccnn35)CCN(C)CC4)C2)CC1` [Example 36.50] returned an EC50 of 81 nM.

In turn, `CN(Cc1ccc(Cl)c(Cl)c1)C(=O)C1CCCN(c2c3c(nc4ccnn24)CCNCC3)C1` (stereo not shown) [Example 1.57] had an EC50 of 2960 nM. The result for `Cn1c(C2CN(c3c4c(nc5ccnn35)CCNCC4)C2)nc2cc(F)ccc21` [Example 34.38] reads 290 nM; that for `FC(F)(F)c1ccc(OC2CN(c3c4c(nc5ccnn35)CCNCC4)C2)nc1` [Example 20.8], 939 nM.

As for `C[C@@H](c1ccccc1)N(C)C(=O)C1CN(c2c3c(nc4ccnn24)CCNCC3)C1` [Example 31.91], the concentration giving a half-maximal response (EC50) came to 2010 nM. With `CC1CNCCc2c1nc1ccnn1c2N1CCC1` (stereo not shown) [Example 3.1], the 50% effective concentration (EC50) was 3 nM.

For the compound `O=C(C1CC1)N1CCN(C(=O)C2CN(c3c4c(nc5ccnn35)CCNCC4)C2)CC1` [Example 37.56], it took 10 nM to reach a half-maximal effect (EC50).

`CC(C)(C)CNC(=O)C1CN(c2c3c(nc4ccnn24)CCNCC3)C1` [Example 37.76]: a half-maximal effect (EC50) was put at 65 nM. The result for `O=C(C1CN(c2c3c(nc4ccnn24)CCNCC3)C1)N1CCC(Oc2ccc(F)c(F)c2)CC1` [Example 31.146] reads 91 nM; that for `Cc1cccc2c1N(C(=O)C1CN(c3c4c(nc5ccnn35)CCNCC4)C1)CC2` [Example 31.174], 116 nM. Turning to `O=C(C1CN(c2c3c(nc4ccnn24)CCNCC3)C1)N1CCNCC1` [Example 37.44], the concentration giving a half-maximal response (EC50) is 2 nM.

Turning to `CCOc1ccc(OC2CN(c3c4c(nc5ccnn35)CCNCC4)C2)cc1` [Example 35.53], the half-maximal effective concentration (EC50) worked out at 324 nM. For `Cc1cnn2c(N3CC(C(=O)N4CCc5ccccc54)C3)c3c(nc12)CCNCC3` [Example 31.236], a half-maximal response (EC50) required 31 nM. For the compound `CC(C)N1CCN(C(=O)C2CN(c3c4c(nc5ccnn35)CCNCC4)C2)CC1` [Example 37.3], the 50% effective concentration (EC50) was 3 nM. For `CN(Cc1nccs1)C(=O)C1CN(c2c3c(nc4ccnn24)CCNCC3)C1` [Example 31.13], the response was half-maximal at 99 nM (EC50).

As for `CC1(N)CCN(C(=O)C2CN(c3c4c(nc5ccnn35)CCNCC4)C2)CC1` [Example 37.18], the midpoint of the response, the EC50, lay at 2 nM. For the compound `c1cc2nc3c(c(N4CCCC4)n2n1)CCNCC3` [Example 7.1], the 50% effective concentration (EC50) is 764 nM. `CN(Cc1ccc(F)cc1)C(=O)C1CN(c2c3c(nc4ccnn24)CCNCC3)C1` [Example 31.96]: the response was half-maximal at 26 nM (EC50). `CC1(C)CC2CC(C)(CN2C(=O)C2CN(c3c4c(nc5ccnn35)CCNCC4)C2)C1` (stereo not shown) [Example 31.25]: the EC50 turned out to be 1510 nM. On to `c1cc2c3c(cccc3c1)CN(c1c3c(nc4ccnn14)CCNCC3)C2` [Example 1.50], for which the concentration giving a half-maximal response (EC50) is 924 nM. With `Fc1ccc(C(F)(F)F)cc1OC1CN(c2c3c(nc4ccnn24)CCNCC3)C1` [Example 35.36], the concentration giving a half-maximal response (EC50) was found to be 90 nM.

In turn, `CN(Cc1cccc(F)c1)C(=O)C1CN(c2c3c(nc4ccnn24)CCNCC3)C1` [Example 31.125] showed an EC50 of 38 nM. In turn, `CC(C)(C)NC1CCN(C(=O)C2CN(c3c4c(nc5ccnn35)CCNCC4)C2)CC1` [Example 37.22] gave an EC50 of 2 nM. As to `Fc1ccc2[nH]c(C3CN(c4c5c(nc6ccnn46)CCNCC5)C3)nc2c1F` [Example 34.23], a half-maximal effect (EC50) was put at 594 nM.

As to `O=C(NC1CCCCC1)C1CN(c2c3c(nc4ccnn24)CCNCC3)C1` [Example 37.71], the EC50 worked out at 114 nM. As for `CC1(C)CCC(NC(=O)C2CN(c3c4c(nc5ccnn35)CCNCC4)C2)CC1` [Example 37.53], the response was half-maximal at 20 nM (EC50). Next, `C#CCCN(CC(C)C)C(=O)C1CN(c2c3c(nc4ccnn24)CCNCC3)C1` [Example 31.106]: 184 nM. The result for `CN1CCc2nc3ccnn3c(N3CC(C(=O)N4CCC(C(F)(F)F)C4)C3)c2CC1` (stereo not shown) [Example 36.27] reads 89 nM. For `COCC1(CNC(=O)C2CN(c3c4c(nc5ccnn35)CCNCC4)C2)CCCC1` [Example 37.69], the concentration for a half-maximal effect (EC50) was 73 nM.

Regarding `CC(C)COC1CN(c2c3c(nc4ccnn24)CCNCC3)C1` [Example 20.1], the EC50 is 359 nM.

`CC(C)CC(C)NC(=O)C1CN(c2c3c(nc4ccnn24)CCNCC3)C1` (stereo not shown) [Example 37.99] registered an EC50 of 92 nM. On to `CCN(C(=O)C1CN(c2c3c(nc4ccnn24)CCNCC3)C1)C(C)C` [Example 31.11], for which the concentration giving a half-maximal response (EC50) turned out to be 306 nM. `c1ccc(C(OC2CCCN(c3c4c(nc5ccnn35)CCNCC4)C2)c2ccccc2)cc1` (stereo not shown) [Example 1.37]: the concentration for a half-maximal effect (EC50) is 1300 nM. Next, `O=C(NCC1CCCCO1)C1CN(c2c3c(nc4ccnn24)CCNCC3)C1` (stereo not shown) [Example 37.55]: 66 nM; `O=C(C1CN(c2c3c(nc4ccnn24)CCNCC3)C1)N1CC=C(c2ccccc2)CC1` [Example 31.181]: 84 nM; `Cc1cnc(C2CN(c3c4c(nc5ccnn35)CCNCC4)C2)o1` [Example 10, 10-[3-(5-Methyl-oxazol-2-yl)-azetidin-1-yl]-6,7,8,9-tetrahydro-5H-1,4,7,10a-tetraaza-cyclohepta[f]indene]: 846 nM. For the compound `CC(C)(O)[C@@H]1CCCN1C(=O)C1CN(c2c3c(nc4ccnn24)CCNCC3)C1` [Example 31.194], the EC50 was 2560 nM.

As a reminder, the EC50 is the midpoint of the concentration-response curve.
